Reference: US20070092551A1, “Therapeutic agent” (TAKARA BIO INC., priority 2003, published 2007)
Read-outs that look alike come from different tables or passages of the source.

Tested on: 3T3-L1 cells
Assay: Induction of adipocyte differentiation (amount of triglyceride biosynthesis)
Format: cell-based
Settings: Mus musculus
Description: Induction of adipocyte differentiation was carried out by partially modifying the above-mentioned method of Rubin C. S. et al. In addition, as a test compound, a compound prepared in Examples mentioned above or a commercially available compound was used. 3T3-L1 cells (ATCC CCL-92.1) were suspended in a 10% fetal bovine serum (manufactured by Bio Whittaker)-containing Dulbecco's modified Eagle's medium (manufactured by Sigma, D6046) containing 200 μM ascorbic acid so as to have a density of 4×10^3 cells/mL, and the suspension was put in each well of a 12-well microtiter plate in an amount of 2 ml per well. The cells were cultured at 37° C. for 7 days in the presence of 5% carbon dioxide gas. On the seventh day, the medium was exchanged with a 10% fetal bovine serum (manufactured by Bio Whittaker)-containing Dulbecco's modified Eagle's medium containing 200 μM ascorbic acid and 0.25 μM dexamethasone, and a test compound dissolved in dimethyl sulfoxide in a concentration shown in each of Tables 16 to 19 was added to each well. Here, there were set a group with addition of 4 μL of an aqueous solution containing 5 mg/mL insulin (manufactured by TAKARA BIO INC.) as a positive control, and a group with addition of dimethyl sulfoxide as a negative control. After 45 hours, the medium was exchanged with a 10% fetal bovine serum-containing Dulbecco's modified Eagle's medium containing 200 μM ascorbic acid. A test compound, 2 μL of an aqueous solution containing 5 mg/mL insulin as a positive control, or dimethyl sulfoxide as a negative control was put to each well in the same concentration. The cells were cultured for additional 7 days. In addition, the medium was exchanged on after 2 days and after 5 days, and at that time, a test compound, 2 μL of an aqueous solution containing 5 mg/mL insulin as a positive control, or dimethyl sulfoxide as a negative control was put to each well in the same concentration.
The amount of triglyceride in the adipocytes was determined as an index of induction of differentiation into mature adipocytes, and also, as the evaluation of insulin-mimetic action.
After the termination of the culture, the medium was removed, and the cells were washed twice with a phosphate buffered saline. One milliliter of a solvent of hexane:isopropanol=3:2 was added to the cells. The mixture was allowed to stand at room temperature for 30 minutes, and thereafter the supernatant was collected. The procedures were repeated again, and 2 mL of the supernatant was concentrated to dryness. The precipitate was dissolved in 100 μL of isopropanol, and the amount of triglyceride contained in 10 μL of the solution was determined using a triglyceride E-test (manufactured by Wako Pure Chemical Industries, Ltd., code 432-40201). In addition, all the determinations were carried out twice. The action for induction of differentiation was calculated by the following calculation formula, and shown by four ranks of +++, ++, + and +/−. • S: Amount of triglyceride in the presence of a test compound; • N: Amount of triglyceride in the negative control; and • P: Amount of triglyceride in the positive control; X=(S−N)/(P−N) (Judgment of Action for Induction of Differentiation)

[1] = 3T3-L1, 3 μM, X=(S−N)/(P−N) of amount of triglyceride, P=insulin positive control, read-out: Action for Induction of Differentiation
[2] = 3T3-L1, 10 μM, X=(S−N)/(P−N) of amount of triglyceride, P=insulin positive control, read-out: Action for Induction of Differentiation
[3] = 3T3-L1, 30 μM, X=(S−N)/(P−N) of amount of triglyceride, P=insulin positive control, read-out: Action for Induction of Differentiation
[4] = 3T3-L1, read-out: Action for Induction of Differentiation
[5] = 3T3-L1, 13 μM, X=(S−N)/(P−N) of amount of triglyceride, P=insulin positive control, read-out: Action for Induction of Differentiation

With `CC(=O)c1ccc(O)c(Cc2ccccc2)c1O` [Compound (C054), 2′,4′-dihydroxy-3′-benzylacetophenone] the activation at 3 µM [1] was 15 to 30% and the activation at 10 µM [2] was 30 to 60%.
Compound `COc1ccc(C(=O)/C=C/c2ccc(O)cc2)c2c1CC(C(C)(C)O)O2` (stereo not shown) [TB4, 1-[2,3-dihydro-2-(1-hydroxy-1-methylethyl)-4-methoxy-benzofuran-7-yl]-3-(4-hydroxyphenyl)-2-propen-1-one] has an activation at 3 µM [1] of 30 to 60% and an activation at 10 µM [2] of 30 to 60%.
`CC(=O)c1ccc(O)c(C/C=C(\C)CCC=C(C)C)c1O` [Compound (C036), 2′,4′-dihydroxy-3′-geranylacetophenone] was tested, and the activation at 3 µM [1] was 15 to 30% and the activation at 10 µM [2] was 60 to 100%.
For `COc1ccc(C(=O)/C=C/c2ccc(O)cc2)c(O)c1C/C=C(\C)C/C=C/C(C)(C)O` [Compound (C081), 1-[2-hydroxy-3-(7-hydroxy-3,7-dimethyl-2,5-octadienyl)-4-methoxyphenyl]-3-(4-hydroxyphenyl)-2-propen-1-one], the activation at 3 µM [1] was 60 to 100%, the activation at 10 µM [2] was greater than 100% and the activation at 30 µM [3] was greater than 100%.
`CC(=O)c1ccc(OCc2ccccc2)c(C/C=C(\C)CCC=C(C)C)c1O` [Compound (C070), 2′-hydroxy-3′-geranyl-4′-benzyloxyacetophenone] showed an activation at 10 µM [2] of 30 to 60% and an activation at 30 µM [3] of 60 to 100%.
In the case of `COc1ccc2c(c1CC=C(C)C)OC(c1ccc(O)cc1)CC2=O` (stereo not shown) [Compound (C034), 7-methoxy-8-prenyl-4′-hydroxyflavanone], the activation at 3 µM [1] is reported as greater than 100% and the activation at 10 µM [2] is reported as greater than 100%.
`C=C(C)C(O)CC/C(C)=C/Cc1c(OC)ccc(C(=O)/C=C/c2ccc(O)cc2)c1O` (stereo not shown) [Xanthoangelol G] gave an activation at 3 µM [1] of 30 to 60%, an activation at 10 µM [2] greater than 100% and an activation at 30 µM [3] greater than 100%.
`COc1ccc(C(=O)/C=C/C=C(C)C)c(O)c1CC=C(C)C` [Compound (C069), 1-(2-hydroxy-3-prenyl-4-methoxyphenyl)-5-methyl-2,4-hexadien-1-one] was tested, and the activation at 3 µM [1] was 30 to 60%, the activation at 10 µM [2] was greater than 100% and the activation at 30 µM [3] was greater than 100%.
In the case of `COc1c2occc2cc2ccc(=O)oc12` [Xanthotoxin], the activation at 13 µM [4] is reported as 30 to 60% and the activation at 40 µM [4] is reported as 60 to 100%.
`CC(C)=CCC/C(C)=C/COc1ccc([C@@H]2CC(=O)c3c(O)cc(O)cc3O2)cc1` [4′-O-Geranylnaringenin] was tested, and the activation at 3 µM [1] was 30 to 60%, the activation at 10 µM [2] was 60 to 100% and the activation at 30 µM [3] was greater than 100%.
`COc1ccc(C(=O)/C=C/c2ccc(O)cc2)c(O)c1C` [Compound (C023), 4,2′-dihydroxy-3′-methyl-4′-methoxychalcone] was tested, and the activation at 4 µM (3T3-L1, 4 μM, X=(S−N)/(P−N) of amount of triglyceride, P=insulin positive control, read-out: Action for Induction of Differentiation) was 60 to 100% and the activation at 13 µM [5] was 60 to 100%.
With `COc1ccc(C=O)c(O)c1CC=C(C)C` [Compound (C063), 2-hydroxy-3-prenyl-4-methoxybenzaldehyde] the activation at 3 µM [1] was 30 to 60%, the activation at 10 µM [2] was 60 to 100% and the activation at 30 µM [3] was greater than 100%.
In the case of `COc1ccc(C(=O)/C=C/c2cccs2)c(O)c1CC=C(C)C` [Compound (C-THP), 1-(2-hydroxy-4-methoxy-3-prenylphenyl)-3-(2-thienyl)-2-propen-1-one], the activation at 1 µM (3T3-L1, 1 μM, X=(S−N)/(P−N) of amount of triglyceride, P=insulin positive control, read-out: Action for Induction of Differentiation) is reported as 15 to 30%, the activation at 3 µM [1] is reported as 60 to 100% and the activation at 10 µM [2] is reported as greater than 100%.
`C/C(=C\Cc1c(O)ccc(C(=O)/C=C/c2ccc(O)cc2)c1O)CCC(O)C(C)(C)O` (stereo not shown) [TB5, 1-[2,4-dihydroxy-3-(6,7-dihydroxy-3,7-dimethyl-2-octenyl)phenyl]-3-(4-hydroxyphenyl)-2-propen-1-one] gave an activation at 3 µM [1] greater than 100% and an activation at 10 µM [2] greater than 100%.
In the case of `CC(=O)c1ccc(O)c(C/C=C(\C)CC/C=C(\C)CCC=C(C)C)c1O` [Compound (C051), 2′,4′-dihydroxy-3′-farnesylacetophenone], the activation at 30 µM [3] is reported as 60 to 100%.
`COc1ccc(C(C)=O)c(O)c1C` [Compound (C022), 2′-hydroxy-3′-methyl-4′-methoxyacetophenone] was tested, and the activation at 13 µM [5] was 15 to 30%.
With `COc1ccc2c(c1C/C=C(\C)CCC=C(C)C)OC(c1ccc(O)cc1)CC2=O` (stereo not shown) [Compound (C082), 8-geranyl-4′-hydroxy-7-methoxyflavanone] the activation at 10 µM [2] was 60 to 100%.
`CC(C)=CCCC1(C)Oc2c(C(=O)/C=C/c3ccc(O)cc3)ccc(O)c2CC1O` (stereo not shown) [TB2, 1-(3,4-dihydro-3,5-dihydroxy-2-(3-isohexenyl)-2-methyl-2H-benzopyran-8-yl)-3-(4-hydroxyphenyl)-2-propen-1-one] was tested, and the activation at 3 µM [1] was greater than 100% and the activation at 10 µM [2] was greater than 100%.
In the case of `CC(C)=CCC/C(C)=C/Cc1c(O)ccc2c1OC(c1ccc(O)cc1)CC2=O` (stereo not shown) [Prostratol F], the activation at 3 µM [1] is reported as 60 to 100% and the activation at 10 µM [2] is reported as 60 to 100%.
Work on `CC(=O)c1ccccc1OCc1ccccc1` [Compound (C065), 2′-benzyloxyacetophenone] yielded an activation at 3 µM [4] of 30 to 60%, an activation at 10 µM [4] of 60 to 100% and an activation at 30 µM [4] greater than 100%.
`CC12CCC(O)C(C)(C)C1Cc1c(O)ccc(C(=O)/C=C/c3ccc(O)cc3)c1O2` (stereo not shown) [TB1, 1-(5,6,7,8,8a,10a-hexahydro-1,7-dihydroxy-8,8,10a-trimethyl-9H-xanthen-4-yl)-3-(4-hydroxyphenyl)-2-propen-1-one] showed an activation at 3 µM [1] greater than 100% and an activation at 10 µM [2] of 60 to 100%.
